# Results reported in ChEMBL document CHEMBL1157539, “Thousands of chemical starting points for antimalarial lead identification” (Nature, 2010).
# Tested on: Plasmodium falciparum
# Test: GSK_TCMDC: Inhibition of Plasmodium falciparum 3D7 in whole erythrocytes, using parasite LDH activity as an index of growth.
# Type: functional, organism-based
# Conditions: Plasmodium falciparum, 3D7
row,Structure (SMILES),XC50
1,Cc1nc(-c2ccc(-c3ccc(C(=O)Nc4ccc(I)c(OCC5CCCN5C)c4)cc3)c(C)c2)no1 (stereo unspecified),33 nM
2,O=C(COc1cccc([N+](=O)[O-])c1)Nc1ccc(-c2nc3ccccc3[nH]2)cc1,754 nM
3,O=c1cc(NCCNCc2cccc(-c3ccccc3)c2)[nH]c2ccccc12,1030 nM
4,CC(C)N(Cc1cnc2nc(N)nc(N)c2n1)c1ccc(Cl)c(Cl)c1,158 nM
5,CC(=O)N1CCN(c2ccc(NC(=O)c3oc(-c4ccccc4)nc3C(F)(F)F)cn2)CC1,840 nM
6,O=C(Nc1ccc(-c2cccc(-c3nc4cc(C(F)(F)F)ccc4[nH]3)c2)cc1)c1ccoc1,829 nM
7,COCCCn1c(=N)c(C(=O)NCCc2ccc(OC)cc2)cc2c(=O)n3cccc(C)c3nc21,1030 nM
8,CCC(C)NC(=O)Nc1cccc(-c2cccc(-c3nc4cccc(C)c4[nH]3)c2)c1 (stereo unspecified),809 nM
9,COc1ccc(-c2cccc(NC(=O)c3cccc(Cl)c3)c2)cc1CN1CCCC1,731 nM
10,Cc1cc(N[C@@H](Cc2ccccc2)C(=O)Nc2ccccc2)nc(NCCc2ccccn2)n1,874 nM
11,CCCc1cc(Cc2cnc(N)nc2N)cc(CC)c1O,1320 nM
12,O=C(/C=C/c1ccc(C(F)(F)F)cc1)NCCCCCN1CCN(C(=O)Nc2ccc(Cl)cc2)CC1,1010 nM
13,COC(=O)COc1cc(C(=O)NCCCCN2CCC(c3ccc4c(c3OC)CCCC4)CC2)ccc1-c1ccc(Cl)cc1,257 nM
14,Cc1ccc(C)c(S(=O)(=O)Nc2ccc(Br)cc2C(=O)Nc2cccc(C(F)(F)F)c2)c1,1210 nM
15,Cc1cc(=NN=Cc2cccc(F)c2)c2cccc(C)c2[nH]1,770 nM
16,Cc1cc(CN2CCC(N3CC(c4ccccc4)(c4ccccc4)OC3=O)C2)ccc1O (stereo unspecified),776 nM
17,Cc1nc2ccc3ccc(CNc4ccc(C#N)cc4)cc3c2c(=O)[nH]1,1440 nM
18,COc1cccc(Nc2nc(C)cc(Nc3cccc(C#N)c3)n2)c1,1080 nM
19,Nc1ccc2[nH]cc(C3CCN(CC4CCC(NC(=O)/C=C/c5ccc(Cl)c(Cl)c5)CC4)CC3)c2n1 (stereo unspecified),731 nM
20,CCN(CCCN1CCCCC1)c1nc(C)cc(Nc2ccc(Cl)cc2)n1,837 nM
21,O=C(CCC(=O)c1ccc2c3c(cccc13)CC2)NC1CCC(CN2CCC(c3c[nH]c4ccccc34)CC2)CC1 (stereo unspecified),918 nM
22,CCCCC(NCC)c1ccc(OCCOc2ccc(C(CCCC)NCC)cc2)cc1 (stereo unspecified),930 nM
23,CC[C@H]1CN2CC[C@H]1C[C@H]2C(O)c1cc(OC)nc2ccccc12 (stereo partly specified),141 nM
24,CN(CCCCCNC(=O)/C=C/c1ccc(Cl)c(Cl)c1)CCc1c[nH]c2ccccc12,874 nM

row,Structure (SMILES),XC50
1,CCN(c1ccc(F)cc1)S(=O)(=O)c1cc(Br)cc2c1N(C(=O)C1CC1)CC2,943 nM
2,Cc1nc(C)c(CC(=O)Nc2ccc(-c3ccc(-c4nc5cc(C(F)(F)F)ccc5[nH]4)s3)cc2)s1,1030 nM
3,CCOc1ccc(C(=O)Nc2cc3c(c(C(F)(F)F)c2)CCNC3)cc1Cl,1060 nM
4,COc1ccc2c(NN=Cc3ccc(F)cc3)ccnc2c1,438 nM
5,CCOc1ccc(-c2nonc2NC(=O)c2ccc(OC(C)C)cc2)cc1OCC,601 nM
6,CC(=O)Oc1c(Cl)c(C)nc(C)c1-c1ccc(Oc2ccc(Cl)cc2)cc1,31.5 nM
7,O=C(CCN(Cc1ccco1)c1nc(-c2ccc(F)cc2)nc2ccccc12)NC1CC1,1580 nM
8,COc1cc2nc(N3CCC(CNC(=O)c4ccc(-c5ccc(C(=O)N(C)C)cc5C)cc4)CC3)nc(N3CCN(C)CC3)c2cc1OC,1230 nM
9,Cc1ccc(S(=O)(=O)NC2CCN(CCNC(=O)Nc3cc(C)nc4ccccc34)C2)cc1 (stereo unspecified),1040 nM
10,O=C(NC1CCN(c2ncc(C(F)(F)F)cc2Cl)CC1)c1cccs1,897 nM
11,N#Cc1ccc(CNCCCCCCCNCc2ccc(-c3ccccc3)cc2)cc1,970 nM
12,CCOC(=O)c1ccc(NC(=O)N[C@@H](Cc2ccccc2)C(=O)NC2CCN(Cc3ccc(OCCCN(C)C)cc3)C2)cc1 (stereo partly specified),702 nM
13,COc1ccc(CNC2CCN(C)CC2)cc1-c1ccc(S(=O)(=O)NC2CCC2)c(F)c1,840 nM
14,Cc1cccc2nc(-c3cccc(-c4cccc(CNCc5ccc(S(C)(=O)=O)cc5)c4)c3)[nH]c12,299 nM
15,CN1CCN(c2cc3c(cc2Cl)CCN3C(=O)Cc2ccc(NC(=O)Nc3cccc4ccccc34)cc2)CC1,973 nM
16,C[C@H](NC(=O)[C@H](Cc1ccccc1)NC(=O)OC(C)(C)C)C(=O)N[C@@H](CC1CCCCC1)C(O)CN (stereo partly specified),733 nM
17,OC(COCc1ccc(-c2ccccc2)cc1)CN1CCCCC1 (stereo unspecified),269 nM
18,O=C(Nc1ccc(Br)c(C(F)(F)F)c1)c1cccc([N+](=O)[O-])c1,914 nM
19,CCCN(c1ccc(C(F)(F)F)cc1[N+](=O)[O-])S(=O)(=O)C(c1ccccc1)c1ccc(C(F)(F)F)cc1[N+](=O)[O-] (stereo unspecified),1220 nM
20,Cc1cccc2nc(-c3ccc(-c4ccc(CNCc5ccc(CN)cc5)cc4)cc3)[nH]c12,721 nM
21,Clc1cccc(C23N/C(=N\c4nc5ccccc5[nH]4)NC2(c2ccccc2)N/C(=N\c2nc4ccccc4[nH]2)N3)c1 (stereo unspecified),519 nM
22,O=C(NC1CCN(Cc2cccc(C(F)(F)F)c2)CC1)c1ccc(-c2cccc(Cl)c2)s1,1130 nM
23,O=C(CN1CCN(C(C(=O)Nc2cc(C(F)(F)F)ccc2Cl)c2ccccc2)CC1)NC1CC1 (stereo unspecified),443 nM
24,CCc1c(CCNCC/C=C/CCNCCc2ccc(OC)c(OC)c2CC)ccc(OC)c1OC,771 nM

row,Structure (SMILES),XC50
1,CCOC(=O)C1=C(C)NC2=C(C(=O)C(C(=O)OC)C(C)C2)C1c1cc(Br)c(OCC)c(OC)c1 (stereo unspecified),701 nM
2,Cc1cccc2nc(-c3cccc(-c4ccc(NC(=O)c5ccc(=O)[nH]n5)cc4)c3)[nH]c12,857 nM
3,CNCc1cccc(-c2ccc3ccnc(N)c3c2)c1,93.1 nM
4,CCOc1ccccc1CNc1nccc(NCc2ccc(Cl)cc2Cl)n1,1100 nM
5,CN1CCN(c2cc(NC(=O)Nc3cccc(Cl)c3Cl)ccc2Cl)CC1,734 nM
6,Nc1cccc(CNCc2cccc(-c3cccc(-c4nc5cc(F)ccc5[nH]4)c3)c2)c1,692 nM
7,COc1cc(C2Nc3ccc4ccccc4c3C3=C2C(=O)CC(C)(C)C3)ccc1Oc1ccc([N+](=O)[O-])cc1C#N (stereo unspecified),662 nM
8,Nc1ncc(-c2ccc3nccc(-c4ccncc4)c3c2)cc1S(=O)(=O)N1CCOCC1,872 nM
9,Cc1cc(F)ccc1[C@H]1C[C@H](N2CCOCC2)CCN1C(=O)N(C)[C@@H](C)c1cc(C(F)(F)F)cc(C(F)(F)F)c1,764 nM
10,CS(=O)(=O)c1ccc(CNCc2cccc(-c3cccc(-c4nc5ccccc5[nH]4)c3)c2)cc1,590 nM
11,Clc1ccc2c(NCc3ccccc3)ccnc2c1,339 nM
12,O=C(NCC1CCN(CCN2CCC(c3cn(CCO)c4ccccc34)CC2)CC1)c1ccc(-c2ccc(C(F)(F)F)cc2)cc1,438 nM
13,OC(c1cccc2ccccc12)C1CN(CCc2ccccc2)CCC1(O)c1ccccc1 (stereo unspecified),145 nM
14,COc1ccc(CNC(=O)NC2CCN(c3ccnc(Nc4ccc(F)cc4)n3)C2)cc1 (stereo unspecified),842 nM
15,Cc1cc(NCc2ccccc2)nc(NCc2ccccc2)n1,974 nM
16,Cc1ccccc1CCNC(=O)c1ccc(N2CCN(c3ccncc3)CC2)nc1,1390 nM
17,Cc1ccc(-c2nnc3c4ccccc4c(C)nn23)cc1S(=O)(=O)N1CCN(CCO)CC1,669 nM
18,Cc1cccc2nc(O)c([N+](=O)[O-])c(O)c12,911 nM
19,Clc1ccc(CNCC2CCN(CC3CCCCC3)CC2)cc1Cl,1000 nM
20,CC(Cc1ccc(C2=CCNCC2)cc1)NCC(O)c1cccc(C(F)(F)F)c1 (stereo unspecified),1570 nM
21,CC1(C)C(N(O)C(=O)Nc2ccc(Cl)c(Cl)c2)N(c2ccc(Cl)c(Cl)c2)C(=O)N1CCc1ccccc1 (stereo unspecified),823 nM
22,O=C(/C=C/c1ccc(Cl)c(Cl)c1)N1CCC(CCN2CCC(c3nc4cc(O)ccc4[nH]3)CC2)CC1,344 nM
23,CC(=O)N1N=C(c2cccs2)Sc2c1nc(-c1ccc(Cl)cc1)n2C(C)=O,736 nM
24,O=C(NC1CCC(CCN2Cc3cccc(C(F)(F)F)c3C2)CC1)c1cccc(-c2cccnc2)c1 (stereo unspecified),1020 nM

row,Structure (SMILES),XC50
1,Cn1cc(CCNc2ccnc(NCCc3coc4ccccc34)n2)c2ccccc21,1060 nM
2,COc1ccc(-n2nc(C)c3c2NC(=O)CC3c2ccccc2OCc2ccccc2F)cc1 (stereo unspecified),901 nM
3,Cc1cc(NC(=O)CCCN2CCN(c3cccc(Cl)c3Cl)CC2)ccc1N1CCN(C(C)C)CC1,757 nM
4,CS(=O)(=O)c1ccc2nc(NC(=O)c3csnn3)sc2c1,666 nM
5,Cc1cccc2nc(-c3ccc(-c4ccc(CN5CCC(CCN6CCCCC6)CC5)cc4)cc3)[nH]c12,144 nM
6,CCOc1ccc2nc3cc(N)ccc3c(N)c2c1,527 nM
7,CN1CC=C(c2c[nH]c3ccc(C(=O)c4nccs4)cc23)CC1,242 nM
8,Oc1ccc(CCNc2nc(NCCCOc3ccccc3-c3cccc(C(F)(F)F)c3)nc(N3CCNCC3)n2)cc1,882 nM
9,COc1c(CNCCCCCCNCc2c(OC)c(OC)c3ccccc3c2OC)c(OC)c2ccccc2c1OC,956 nM
10,Cc1cccc2nc(-c3ccc(-c4ccc(CN5CCC(C(N)=O)CC5)cc4)s3)[nH]c12,907 nM
11,CCC1CN2CCc3c([nH]c4ccccc34)C2CC1CC1=NCCc2c1[nH]c1ccccc21 (stereo unspecified),737 nM
12,CC(C)N1CCN(C(CN2CCN(CCCOc3cccc4ccccc34)CC2)c2ccc(F)cc2)CC1 (stereo unspecified),879 nM
13,Cc1nc(NCCc2c[nH]cn2)cc(NCc2ccccc2)n1,833 nM
14,COc1ccccc1CCNC(=O)c1cc(Br)cc(N2CCN(c3ccncc3)CC2)c1,1270 nM
15,CCS(=O)(=O)Nc1ccc2c(c1)/C(=C(/Nc1ccc(CN3CCCCC3)cc1)c1ccccc1)C(=O)N2 [HESPERADIN],56.5 nM
16,Cc1cccc(NC(=O)c2ccc(C(=O)NC3CCN(CC4CCCCC4)CC3)cc2)c1,805 nM
17,O=C(NCCCCN1CCCC2c3cccc(O)c3CCC21)c1ccc(-c2ccccc2)cc1 (stereo unspecified),1170 nM
18,CN1CCCC(COc2cc3c(cc2Br)CCN3C(=O)Nc2ccc(-c3ccncc3)c(Cl)c2)C1 (stereo unspecified),234 nM
19,N#Cc1cncc(-c2nc3c(N4CCCC(N)C4)cccc3n2CCNCc2ccccc2)c1 (stereo unspecified),768 nM
20,COc1ccc2c(=NN=Cc3cccc(F)c3)cc(C)[nH]c2c1,777 nM
21,O=C(NCc1ccccc1)c1ccc(C(=O)NCC2CNCCO2)cc1 (stereo unspecified),1140 nM
22,CC(C)c1ccc(NC(=O)c2ccc(C(=O)NC3CCN(CC4CCCCC4)C3)cc2)cc1 (stereo unspecified),792 nM
23,Cc1cccc2nc(-c3cccc(-c4ccc(NC(=O)c5cnn6cccnc56)cc4)c3)[nH]c12,212 nM
24,COc1ccc(-c2cccc(CNCc3ccc(F)cc3)c2)cc1S(=O)(=O)NCCN1CCCC1,1850 nM
